Measured values reported in PMC11850127 (The Journal of Biological Chemistry, 2025).
Entries after “also recorded” stand apart in the source; their conditions may differ. Starred links: 1 amine or outer side, 2 acyl side, 3 side chain; linkers in the order of their positions; H or OH if unused. Positions of bridges follow the written chain, without caps; N, C: chain ends. Non-standard residues stand in square brackets, D forms with d. Residues, ends and D or L forms follow the SMILES beside them. Chains are numbered I, II in the order given. Actinocin(9to1) = Cc1c2oc3c(C)ccc(C(=O)[*:1])c3nc-2c(C(=O)[*:2])c(N)c1=O; NMeV = CN[C@H](C(=O)O)C(C)C; Sar = CNCC(=O)O

System: [V13′T]α10 nAChR
Format: cell-based, human (expressed in Xenopus laevis oocytes)

Compound: Cc1c2oc3c(C)ccc(C(=O)N[C@@H]4C(=O)N[C@H](C(C)C)C(=O)N5CCC[C@H]5C(=O)N(C)CC(=O)N(C)[C@@H](C(C)C)C(=O)O[C@@H]4C)c3nc-2c(C(=O)N[C@@H]2C(=O)N[C@H](C(C)C)C(=O)N3CCC[C@H]3C(=O)N(C)CC(=O)N(C)[C@@H](C(C)C)C(=O)O[C@@H]2C)c(N)c1=O [actinomycin D] (I: T[dV]P[Sar][NMeV] / II: T[dV]P[Sar][NMeV]; ester I:1-I:C, II:1-II:C; linker I:N-II:N via Actinocin(9to1))
- effect of actinomycin D on ACh-induced currents: did not differ in the magnitude of their ACh-induced currents from untreated controls; also recorded: not significantly different
- mean ACh-induced response with actinomycin D: −233 ± 219 nA
